Converted amounts (≈) assume the structure as drawn.
Assay: physchem
Type: physicochemical
Conditions: 30 °C, pH 7.5, aqueous buffer
Experimental: This process can be carried out in reaction mixtures comprised of two phases: an aqueous phase, which initially contains enzyme and dissolved 2-isobutyl-succinonitrile, and an organic phase, which consist mainly of racemic 2-isobutyl-succinonitrile. Two-phase reaction mixtures are prepared by adding 2-isobutyl-succinonitrile to an aqueous solution of enzyme and buffer agents such that the amount of 2-isobutyl-succinonitrile added exceeds it aqueous solubility limit. The aqueous solubility limit of 2-isobutyl-succinonitrile in 50 mM potassium phosphate (30° C., pH 7.5) is approximately 0.06M. Over the course of the reaction, (S)-3-cyano-5-methylhexanoic acid ammonium salt is formed and increases in concentration in the aqueous phase, while the organic phase decreases in volume and becomes enriched in (R)-2-isobutyl-succinonitrile. Alternately, this process can also be carried out in reaction mixtures comprised of three phases: an aqueous phase, which initially contains dissolved 2-isobutyl-succinonitrile, an organic phase, which consists mainly of racemic 2-isobutyl-succinonitrile, and a solid phase, which consists of enzyme immobilized on an insoluble support. Three-phase reaction mixtures are prepared by the procedure described for two-phase reaction mixture except that an enzyme immobilized on an insoluble support is used in place of an un-immobilized enzyme.

SMILES: CC(C)CC(C#N)CC#N (racemic) [2-isobutyl-succinonitrile]
- solubility: ~60 mM (≈ 8170 µg/mL)

Reference: patent publication US8304252B2, “Stereoselective bioconversion of aliphatic dinitriles into cyano carboxylic acids” (Pfizer Inc., priority 2004, dated 2012)
